Laboratory results taken from the supplement of paper PMC10949913.

Tests used:
[1] = tested on: CU-ACC1; experiment: area under concentration-response curve (viability) (AUC (a.u.)); higher = less active; details: 48 h
In short: (§1)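 Luminescence from CellTiter-Glo, read after 48 h, measured three adrenocortical carcinoma cell lines treated in 1,536-well plates with library compounds at 11 concentrations. Values were normalised per plate to vehicle and empty-well controls. The AC50 and area under the curve come from fitted concentration-response curves in inhibitory or non-responding classes only.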

[2] = tested on: NCI-H295R; experiment: as above; details: 48 h
In short: as §1

In the case of N[C@H](CSC(c1ccccc1)(c1ccccc1)c1ccccc1)C(=O)O, the “area under concentration-response curve” value [1] is reported as 529 and the “area under concentration-response curve” value [2] is reported as 564.

With CCOC(=O)Nc1ccc(NCc2ccc(F)cc2)cc1N the “area under concentration-response curve” value [1] was 543 and the “area under concentration-response curve” value [2] was 578.

For O=C(O)/C(S)=C/c1ccc(I)cc1, the “area under concentration-response curve” value [1] was 368 and the “area under concentration-response curve” value [2] was 459.

With Cc1cc(Oc2ccc3nc(COc4ccc(CC5SC(=O)NC5=O)cc4)n(C)c3c2)cc(C)c1N (stereo not given) the “area under concentration-response curve” value [1] was 512 and the “area under concentration-response curve” value [2] was 556.

With O=C(NOCCO)c1cc(CN2OCCCC2=O)c(F)c(F)c1Nc1ccc(I)cc1F the “area under concentration-response curve” value [1] was 267 and the “area under concentration-response curve” value [2] was 267.

With CC1=NN(c2ccc(C)c(C)c2)C(=O)/C1=N/Nc1cccc(-c2cccc(C(=O)O)c2)c1O the “area under concentration-response curve” value [1] was 437 and the “area under concentration-response curve” value [2] was 500.

O=C(O)C1(Cc2cccc(Nc3nccs3)n2)CCC(Oc2cccc(Cl)c2F)CC1 (stereo not given) was tested, and the “area under concentration-response curve” value [1] was 511 and the “area under concentration-response curve” value [2] was 510.

With CN[C@@H](C)[C@H]1[C@H](O)C[C@@]2(C)[C@@H]3CC[C@H]4C(C)(C)[C@@H](NC)CC[C@@]45C[C@@]35CC[C@]12C the “area under concentration-response curve” value [1] was 546 and the “area under concentration-response curve” value [2] was 613.

Cc1ccc(Nc2cc(N[C@@H]3CCCC[C@@H]3N)nnc2C(N)=O)nc1C was tested, and the “area under concentration-response curve” value [1] was 516 and the “area under concentration-response curve” value [2] was 568.

With CN1CCN(CC1)C2=NC3=C(C=CC=C3)C(=N2)C/4=C(/C(=O)NC4=O)C5=C[NH]C6=C5C=CC=C6 the “area under concentration-response curve” value [1] was 498 and the “area under concentration-response curve” value [2] was 523.

With C[C@@H]1CC(=O)Nc2cccc(-c3cnn(C(C)(C)C)c3)c2N1 the “area under concentration-response curve” value [1] was 551 and the “area under concentration-response curve” value [2] was 570.

In the case of CCOc1ccc(Cc2cc([C@@H]3O[C@H](CO)[C@@H](O)[C@H](O)[C@H]3O)ccc2Cl)cc1, the “area under concentration-response curve” value [1] is reported as 464 and the “area under concentration-response curve” value [2] is reported as 494.

C[C@H](NC(=O)Cc1cc(F)cc(F)c1)C(=O)N[C@@H]1C(=O)N(C)c2ccccc2-c2ccccc21 was tested, and the “area under concentration-response curve” value [1] was 516 and the “area under concentration-response curve” value [2] was 528.

In the case of O=C1OC(COc2ccccc2[N+](=O)[O-])CC1Cc1ccccc1 (stereo not given), the “area under concentration-response curve” value [1] is reported as 412 and the “area under concentration-response curve” value [2] is reported as 521.

In the case of COCCOC(=O)C/1=C(C)/NC/2=C(C1C3=CC=CC(=C3)O)/C(=O)CC(C2)C4=C(OC)C=CC=C4 (stereo not given), the “area under concentration-response curve” value [1] is reported as 446 and the “area under concentration-response curve” value [2] is reported as 507.

With CCC(C)N(C)C(=O)c1cc2ccccc2c(-c2ccccc2Cl)n1 (stereo not given) the “area under concentration-response curve” value [1] was 492 and the “area under concentration-response curve” value [2] was 337.

In the case of CNC(=O)c1ccc2c(c1)NC(=O)/C2=C(\Nc1cccc(CN(C)C)c1)c1ccccc1, the “area under concentration-response curve” value [1] is reported as 323 and the “area under concentration-response curve” value [2] is reported as 441.

In the case of Cc1ccccc1C(=O)Nc1ccc(C(=O)N2CCCC(O)c3cc(Cl)ccc32)c(C)c1 (stereo not given), the “area under concentration-response curve” value [1] is reported as 484 and the “area under concentration-response curve” value [2] is reported as 536.

With C[C@@]1(c2ncncc2F)NC(=O)c2cc(-c3cn[nH]c3)ccc21 the “area under concentration-response curve” value [1] was 528 and the “area under concentration-response curve” value [2] was 546.

CC(C)Nc1cc(C(F)(F)F)cc2nc(NC(=O)c3cccnc3)nn12 was tested, and the “area under concentration-response curve” value [1] was 373 and the “area under concentration-response curve” value [2] was 412.

For CN1C(=O)[C@@H](NC(=O)c2nc(Cc3ccccc3)n[nH]2)COc2ccccc21, the “area under concentration-response curve” value [1] was 536 and the “area under concentration-response curve” value [2] was 559.

With C=C1C[C@@]2(O)O[C@@]3(C[C@H]2C(C)C)[C@@H](C)CC[C@@H]13 the “area under concentration-response curve” value [1] was 487 and the “area under concentration-response curve” value [2] was 541.

For CCN(C1CCOCC1)C2=C(C)C(=CC(=C2)C3=CC=C(CN4CCOCC4)C=C3)C(=O)NC\C5=C(C)\C=C(C)/NC5=O, the “area under concentration-response curve” value [1] was 262 and the “area under concentration-response curve” value [2] was 249.

In the case of OC(=O)/C1=C/CCN(CCOC(C2=CC=C(C=C2)C(F)(F)F)C3=CC=C(C=C3)C(F)(F)F)C1, the “area under concentration-response curve” value [1] is reported as 548 and the “area under concentration-response curve” value [2] is reported as 569.

CONC(=O)Nc1ccc(-c2sc3c(c2CN(C)Cc2ccccc2)c(=O)n(-c2ccccc2)c(=O)n3Cc2c(F)cccc2F)cc1 was tested, and the “area under concentration-response curve” value [1] was 531 and the “area under concentration-response curve” value [2] was 556.
